According to patent publication US11766434B2, “Pyrimidinone derivatives as CDC7 inhibitors” (Cancer Research Technology Limited, priority 2016, dated 2023):
Values belong to the compound of their own block, whether it stands above or below them.

Legend:
Cdc7/ASK = Cdc7/ASK (Homo sapiens, UniProt O00311); experiment: Cdc7 biochemical assay Method 1: 384 well ELISA, MCM2 whole protein substrate, Phospho MCM2 (S53) antibody; design: purchased; conditions: ATP 2 μM, 90 minutes, read-out: Biochemical method 1 (pIC50) (converted)
Sequence of Cdc7/ASK (O00311 whole entry): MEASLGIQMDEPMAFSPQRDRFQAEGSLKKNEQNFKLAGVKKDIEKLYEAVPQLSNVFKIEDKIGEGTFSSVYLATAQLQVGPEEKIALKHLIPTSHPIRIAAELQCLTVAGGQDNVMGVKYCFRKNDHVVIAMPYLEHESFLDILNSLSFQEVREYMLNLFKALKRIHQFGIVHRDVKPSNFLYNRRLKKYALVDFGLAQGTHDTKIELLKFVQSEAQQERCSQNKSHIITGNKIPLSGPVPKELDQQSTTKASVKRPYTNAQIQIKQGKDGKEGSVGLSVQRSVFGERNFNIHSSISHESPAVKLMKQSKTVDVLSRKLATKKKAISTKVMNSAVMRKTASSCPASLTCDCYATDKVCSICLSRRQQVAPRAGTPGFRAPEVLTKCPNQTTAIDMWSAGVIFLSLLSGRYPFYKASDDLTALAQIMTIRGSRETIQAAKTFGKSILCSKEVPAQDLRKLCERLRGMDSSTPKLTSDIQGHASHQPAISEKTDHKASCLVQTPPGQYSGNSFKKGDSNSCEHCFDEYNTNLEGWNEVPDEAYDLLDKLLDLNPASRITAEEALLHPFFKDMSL
Sequence of Cdc7/ASK (Q9UBU7 whole entry partner): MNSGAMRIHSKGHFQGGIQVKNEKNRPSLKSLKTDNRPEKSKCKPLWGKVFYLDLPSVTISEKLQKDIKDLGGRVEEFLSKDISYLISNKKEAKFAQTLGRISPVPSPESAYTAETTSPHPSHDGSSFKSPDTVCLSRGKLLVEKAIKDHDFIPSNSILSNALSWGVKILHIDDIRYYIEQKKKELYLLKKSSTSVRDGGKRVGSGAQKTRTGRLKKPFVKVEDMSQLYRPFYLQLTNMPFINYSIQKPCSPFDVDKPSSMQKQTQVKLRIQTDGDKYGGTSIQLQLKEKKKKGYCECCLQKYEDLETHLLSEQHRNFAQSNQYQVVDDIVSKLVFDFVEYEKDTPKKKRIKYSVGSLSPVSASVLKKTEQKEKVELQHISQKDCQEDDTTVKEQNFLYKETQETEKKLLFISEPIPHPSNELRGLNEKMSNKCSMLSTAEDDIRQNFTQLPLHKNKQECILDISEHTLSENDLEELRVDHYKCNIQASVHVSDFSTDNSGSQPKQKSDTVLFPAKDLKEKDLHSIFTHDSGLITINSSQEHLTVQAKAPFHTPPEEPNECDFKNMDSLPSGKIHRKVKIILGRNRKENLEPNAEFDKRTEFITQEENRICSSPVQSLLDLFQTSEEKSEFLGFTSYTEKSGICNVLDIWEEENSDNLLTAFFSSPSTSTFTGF
Experimental: This protocol describes a method for assaying Cdc7/ASK for activity. The assay is a 384 well ELISA assay, utilising a whole protein substrate (MCM2) and an antibody against Phospho MCM2 (S53). This site is thought to be specific to Cdc7/ASK phosphorylation and the assay has been validated using knockout mutants.
• TBS: 25 mM Tris pH 7.2, 150 mM NaCl. (Dilute 10× stock by 1:10). • Wash Buffer: TBS+0.05% Tween 20. (Add 100 mL 1 M Tris pH 7.2, 120 mL 5 M NaCl and 2 mL 100% Tween 20 per 4 L). • Kinase Reaction Buffer: 50 mM Tris-HCl pH 8.5, 10 mM MgCl2, 1 mM DTT. (Dilute 10× stock by 1:10 and add 100 μL 1M DTT per 100 mL prior to assay). • Diethanolamine Buffer: 1 M diethanolamine pH 9.8, 0.5 mM MgCl2. • Stop Solution: 1 M NaOH. • MCM2 was expressed and purified in-house and used in the assay at a final assay concentration of 436 ng/well. • Cdc7/ASK is purchased from commercial suppliers and used in the assay at a final assay concentration of 37.97 ng/well or 20.63 nM. • ATP used as a final assay concentration of 2 μM. • Primary Antibody: Rabbit anti-Phospho MCM2 (S53 Antibody (BL3353)), is purchased from commercial suppliers at 0.2 mg/mL and used at a final assay concentration by diluting 1:800 in TBS. • Secondary Antibody: Anti-Rabbit/AP Antibody is supplied is purchased from commercial suppliers at 1 mg/mL and used at a final assay concentration by diluting 1:2000 in TBS. • Development Reagent: Dissolve one 20 mg PNPP tablet (Sigma, product N2765, 20 mg per tablet) per 20 mL diethanolamine Buffer (or one 5 mg PNPP tablet per 5 mL diethanolamine buffer). Cover in foil and leave shaking on a roller shaker at room temperature for up to an hour to dissolve. Methods • 1. Add 20 μL 1× working stock of Substrate (MCM2) in TBS to all wells of a clear, 384 well, Nickel-chelate microplate to give a final concentration of 250 ng/well. Incubate at room temperature for at least 1 hour. Plates can be pre-coated for 1 hour and stored at 4° C. for up to 8 days. • 2. Wash with TBS+0.05% Tween 20 (80 μL x 3). • 3. Add 2 μL 10× test compounds, including the positive control, in 40% DMSO/water to ‘test’ wells. Add 2 μL 40% DMSO/water to ‘control’ and ‘blank’ wells. The final DMSO concentration will be 4%. • 4. Add 13 μL CDCl7/ASK Kinase (1.5× stock) in Kinase Reaction Buffer to ‘test’ and ‘control’ wells to give a final concentration of […]. Add 13 μL Kinase Reaction Buffer to ‘blank’ wells. • 5. Add 5 μL ATP (4× stock) in Kinase Reaction Buffer to all wells to give a final concentration of 2 μM. • 6. Incubate at room temperature for 90 minutes. • 7. Wash with TBS+0.05% Tween 20 (80 μL x 3). • 8. Add 20 μL 1× working solution of Primary Antibody in TBS to all wells. Incubate at room temperature for 30 minutes. • 9. Wash with TBS+0.05% Tween 20 (80 μL x 3). • 10. Add 20 μL 1× working solution of Secondary Antibody in TBS to all wells. Incubate at room temperature for 30 minutes. • 11. Wash with TBS+0.05% Tween 20 (80 μL x 3). • 12. Add 20 μL 1× Development Reagent to all wells. • 13. Incubate at room temperature for 2 hours. Stop the reaction by adding 20 μL Stop Solution to all wells and record Absorbance on a Pherastar plate reader.
Percentage inhibition values were calculated from absorbance values, using the no compound (DMSO) and no enzyme control values as 0% and 100% inhibition, respectively. IC50 determination was performed with ExcelFit software (IDBS) using curve fit 205. Z′ factors were determined for each plate tested and were all above 0.5.

Cdc7 = Cdc7 (Homo sapiens, UniProt O00311); experiment: Cdc7 cell pharmacodynamics assay Method 1: pS53MCM2 levels in HCT116 cells; format: cell-based; design: endogenous in cells; conditions: 6 hours treatment, read-out: Biomarker Method 1 (pEC50) (converted)
Sequence of Cdc7 (O00311 whole entry): as the sequence (O00311 whole entry) above
Sequence of Cdc7 (Q9UBU7 whole entry partner): as the sequence (Q9UBU7 whole entry partner) above
Source text: This protocol describes a method to investigate the inhibition of Cdc7 activity of compounds by measuring pS53MCM2 levels in cells after treatment.
• HCT116 cells (wild type P53 positive) • McCoys 5A media (PAA Laboratories Ltd, E15-022) • 10% FCS (Sera Laboratories International Ltd, EU000F Batch: 108005) • 100× L-Glutamine (Invitrogen, 25030-024) • D-PBS without CaCl2 and MgCl2 (Invitrogen, ref. 14190-094) • Trypsin/EDTA (Invitrogen 25300-054) • 2% BSA in PBS • Cell Extraction Buffer (Invitrogen FNN0011) • Protease inhibitor cocktail (Sigma P-2714) • PMSF 0.3M stock in DMSO (Sigma P7626) • Antibody—rabbit pMCM2 Ser53 (Bethyl #A300-756A) • Antibody—goat MCM2 (Bethyl #A300-122A) • Antibody—goat Anti Rabbit IgG HRP (Perbio Science UK Ltd 31462) • 1×PBS • FACE Wash buffer (0.02% Triton X100 in 1×PBS) • SuperSignal ELISA Pico Chemiluminescent Substrate (Perbio Science UK Ltd 37070) Method • 72 hours prior to the start of the experiment plate 1×10^6 HCT116 cells in a 150 cm^2 flask in complete McCoys 5A media (+10% FCS+1× L-glutamine). • Plate 20,000 HCT116 cells per well in standard TC treated 96 well plate in 100 μL complete McCoys 5A media. • Allow cells to settle overnight in incubator set at 37° C. and 5% CO2. • Remove intermediate plate from fridge and place at 37° C. overnight to allow to equilibrate. • Cell treatment: cell assay plate 100 μL; daughter to cell transfer volume 3.33 μL; daughter volume 45 μL; mother plate to daughter volume 5 μL. • Once all cells are treated remove the cells to the incubator and incubate for 6 hours. • Dilute the capture antibody (total MCM2 #A300-122A) 1 in 250 in the required volume of PBS (5 mL per assay plate) and add 50 μL to each well of a Hybond plate excluding wells 12E to 12H. In these wells add 50 μL PBS. Seal the plate and incubate at room temperature fora minimum of 2 hours. • Defrost aliquot of Invitrogen Cell Extraction Buffer (FNN0011) on ice and supplement with appropriate volume of both Sigma protease inhibitor cocktail (P-2714) and PMSF (final cone 1 mM from a […] in DMSO). • After the 6 hour cell treatment time tap out the media from the assay plates and place them in the −70° C. freezer for at least 5 minutes. • Remove plates from freezer and add 20 μL of ice cold complete lysis buffer on ice. Incubate cells for 30 minutes at 4° C. • Add 80 μL per well 2% BSA. • Transfer 80 μL from the lysis plate to the same wells in the capture/ELISA plate. Cover with plate seal and incubate plates overnight at 4° C. • Wash plates with PBS, remove any residual remaining liquid and add 50 μL per well of pMCM2 Ser53 antibody (#A300-756A) diluted 1 in 100 in 2% BSA. Cover plate and incubate at room temperature for 2 hours with gentle shaking. • Wash plates with PBS, remove any residual remaining liquid and Incubate with 50 μL goat anti rabbit antibody (1 in 800 dilution in 2% BSA) for 1 hour at room temperature. • Wash plates with PBS, remove any residual remaining liquid and add 50 μL mixed SuperSignal Pico substrate. • Incubate each plate for 5 minutes at room temperature shielding the plates from direct light (with a cover plate). Read plates with the luminescent detection. Method 2

SMILES: Cc1ncsc1-c1nc(C2CCNCC2)c(Cl)c(=O)[nH]1 [Compound 2, 5-chloro-2-(4-methylthiazol-5-yl)-4-(4-piperidyl)-1H-pyrimidin-6-one]
IC50 (Cdc7/ASK): 0.00316 µM | EC50 (Cdc7): 2 µM

SMILES: CCc1[nH]ncc1-c1nc(C2CCOCC2)c(Cl)c(=O)[nH]1 [Compound 15, 5-chloro-2-(5-ethyl-1H-pyrazol-4-yl)-4-tetrahydropyran-4-yl-1H-pyrimidin-6-one]
IC50 (Cdc7/ASK): 0.0372 µM | EC50 (Cdc7): 1.74 µM

SMILES: Cc1ncsc1-c1nc(C2CCOCC2)c(F)c(=O)[nH]1 [Compound 8, 5-fluoro-2-(4-methylthiazol-5-yl)-4-tetrahydropyran-4-yl-1H-pyrimidin-6-one]
IC50 (Cdc7/ASK): 0.0302 µM | EC50 (Cdc7): 0.331 µM

SMILES: Cc1ncsc1-c1nc(N2CCC(O)CC2)c(Cl)c(=O)[nH]1 [Compound 29, 5-chloro-4-(4-hydroxy-1-piperidyl)-2-(4-methylthiazol-5-yl)-1H-pyrimidin-6-one]
IC50 (Cdc7/ASK): 0.00316 µM | EC50 (Cdc7): 0.158 µM

SMILES: Cc1ncsc1-c1nc(C2CCN(C(=O)c3cc(C)n(C)n3)CC2)c(Cl)c(=O)[nH]1 [Compound 23, 5-chloro-4-[1-(1,5-dimethylpyrazole-3-carbonyl)-4-piperidyl]-2-(4-methylthiazol-5-yl)-1H-pyrimidin-6-one]
IC50 (Cdc7/ASK): 0.00331 µM | EC50 (Cdc7): 3.89 µM

SMILES: Cc1ncoc1-c1nc(C2CCOCC2)c(Cl)c(=O)[nH]1 [Compound 12, 5-chloro-2-(4-methyloxazol-5-yl)-4-tetrahydropyran-4-yl-1H-pyrimidin-6-one]
IC50 (Cdc7/ASK): 0.363 µM | EC50 (Cdc7): 3.63 µM

SMILES: Cc1ncsc1-c1nc(N2CCC(C)CC2)c(Cl)c(=O)[nH]1 [Compound 30, 5-chloro-4-(4-methyl-1-piperidyl)-2-(4-methylthiazol-5-yl)-1H-pyrimidin-6-one]
IC50 (Cdc7/ASK): 0.00347 µM | EC50 (Cdc7): 0.251 µM

SMILES: Cc1cc(C(=O)N2CCC(c3nc(-c4scnc4C)[nH]c(=O)c3Cl)CC2)no1 [Compound 25, 5-chloro-4-[1-(5-methylisoxazole-3-carbonyl)-4-piperidyl]-2-(4-methylthiazol-5-yl)-1H-pyrimidin-6-one]
IC50 (Cdc7/ASK): 0.00479 µM | EC50 (Cdc7): 0.447 µM

SMILES: CCc1ncsc1-c1nc(C2CCOCC2)c(Cl)c(=O)[nH]1 [Compound 13, 5-chloro-2-(4-ethylthiazol-5-yl)-4-tetrahydropyran-4-yl-1H-pyrimidin-6-one]
IC50 (Cdc7/ASK): 0.0331 µM | EC50 (Cdc7): 1.1 µM

The next lines start with the values.

IC50 (Cdc7/ASK): 0.00589 µM | EC50 (Cdc7): 0.158 µM
SMILES: Cc1ncsc1-c1nc(N2CCCC(CO)C2)c(Cl)c(=O)[nH]1 (centres unmarked) [Compound 36, 5-chloro-4-[3-(hydroxymethyl)-1-piperidyl]-2-(4-methylthiazol-5-yl)-1H-pyrimidin-6-one]

IC50 (Cdc7/ASK): 0.00269 µM | EC50 (Cdc7): 0.1 µM
SMILES: Cc1ncsc1-c1nc(N2CCC(CO)CC2)c(Cl)c(=O)[nH]1 [Compound 33, 5-chloro-4-[4-(hydroxymethyl)-1-piperidyl]-2-(4-methylthiazol-5-yl)-1H-pyrimidin-6-one]

IC50 (Cdc7/ASK): 0.00141 µM | EC50 (Cdc7): 0.024 µM
SMILES: Cc1ncsc1-c1nc(N2CCCC(F)(F)C2)c(Cl)c(=O)[nH]1 [Compound 35, 5-chloro-4-(3,3-difluoro-1-piperidyl)-2-(4-methylthiazol-5-yl)-1H-pyrimidin-6-one]

IC50 (Cdc7/ASK): 0.00363 µM | EC50 (Cdc7): 0.0851 µM
SMILES: Cc1ncsc1-c1nc(N2CCNC(C(F)(F)F)C2)c(Cl)c(=O)[nH]1 (centres unmarked) [Compound 31, 5-chloro-2-(4-methylthiazol-5-yl)-4-[3-(trifluoromethyl)piperazin-1-yl]-1H-pyrimidin-6-one]

IC50 (Cdc7/ASK): 0.00331 µM | EC50 (Cdc7): 0.11 µM
SMILES: Cc1ncsc1-c1nc(N2CCN[C@@H](C)C2)c(Cl)c(=O)[nH]1 [Compound 37, 5-chloro-4-[(3S)-3-methylpiperazin-1-yl]-2-(4-methylthiazol-5-yl)-1H-pyrimidin-6-one]

IC50 (Cdc7/ASK): 0.00871 µM | EC50 (Cdc7): 0.263 µM
SMILES: Cc1ncsc1-c1nc(N2CCN[C@H](C)C2)c(Cl)c(=O)[nH]1 [Compound 32, 5-chloro-4-[(3R)-3-methylpiperazin-1-yl]-2-(4-methylthiazol-5-yl)-1H-pyrimidin-6-one]

IC50 (Cdc7/ASK): 0.00229 µM | EC50 (Cdc7): 0.0832 µM
SMILES: Cc1ncsc1-c1nc(N2CCNCC2)c(Cl)c(=O)[nH]1 [Compound 38, 5-chloro-2-(4-methylthiazol-5-yl)-4-piperazin-1-yl-1H-pyrimidin-6-one]
